This is an account of results in patent CN114790169A, “四氢喹啉相关二环类化合物及其应用” (Guangzhou Institute of Biomedicine and Health of CAS, priority 2016, dated 2017).

The target in data set [1] is T1, RORα (Homo sapiens, UniProt P35398).
T1 sequence (P35398 1-523): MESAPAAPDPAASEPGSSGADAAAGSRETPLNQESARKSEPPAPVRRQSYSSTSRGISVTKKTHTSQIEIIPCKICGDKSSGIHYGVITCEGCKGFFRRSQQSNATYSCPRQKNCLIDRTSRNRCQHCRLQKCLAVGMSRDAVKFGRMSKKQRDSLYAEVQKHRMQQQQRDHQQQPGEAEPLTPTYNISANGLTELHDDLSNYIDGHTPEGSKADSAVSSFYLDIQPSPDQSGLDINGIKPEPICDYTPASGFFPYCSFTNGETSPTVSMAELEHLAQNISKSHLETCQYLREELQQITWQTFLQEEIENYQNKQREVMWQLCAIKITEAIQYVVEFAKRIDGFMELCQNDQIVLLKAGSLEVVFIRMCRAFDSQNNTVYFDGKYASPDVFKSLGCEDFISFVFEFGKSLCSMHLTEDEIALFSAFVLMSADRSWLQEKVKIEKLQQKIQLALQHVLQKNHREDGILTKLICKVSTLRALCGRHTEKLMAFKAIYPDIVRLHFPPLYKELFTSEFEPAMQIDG
The note with it: literature, in words; cited from earlier work.

The subject of data set [2] is other nuclear receptors (LXRα/β, FXR, PXR) [其他核受体 (LXRα/β,FXR,PXR)]. The note with it: literature, in words; cited from earlier work.
Data set [3] has as its target T2, RORγ (Homo sapiens, UniProt P51449).
T2 sequence (P51449 1-518): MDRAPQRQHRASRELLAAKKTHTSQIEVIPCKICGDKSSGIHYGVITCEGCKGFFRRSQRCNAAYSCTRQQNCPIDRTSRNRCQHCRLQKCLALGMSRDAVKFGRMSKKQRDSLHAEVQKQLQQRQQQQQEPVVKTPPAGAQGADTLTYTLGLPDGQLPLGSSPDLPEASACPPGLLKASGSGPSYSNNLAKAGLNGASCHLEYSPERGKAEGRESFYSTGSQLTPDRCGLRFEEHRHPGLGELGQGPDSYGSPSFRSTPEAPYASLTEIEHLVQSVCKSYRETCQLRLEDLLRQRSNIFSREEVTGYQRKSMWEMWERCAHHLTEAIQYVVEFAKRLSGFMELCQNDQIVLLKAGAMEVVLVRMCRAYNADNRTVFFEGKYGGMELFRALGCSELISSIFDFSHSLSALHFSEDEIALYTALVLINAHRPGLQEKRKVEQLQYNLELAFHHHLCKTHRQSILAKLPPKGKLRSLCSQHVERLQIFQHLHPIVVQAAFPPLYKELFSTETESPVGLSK
The following applies: literature, in words; cited from earlier work.

The conditions of data set [4]: literature, in words; cited from earlier work.
Data set [5] deals with T3, nuclear receptor RORγ [核受体RORγ] (Homo sapiens, UniProt P51449).
T3 construct: 重组质粒:Gal4-RORγLBD:25ng; expressed in transfected cells; host or cells: 293T (human kidney epithelial cell line)
T3 sequence (P51449 269-508 limits assumed): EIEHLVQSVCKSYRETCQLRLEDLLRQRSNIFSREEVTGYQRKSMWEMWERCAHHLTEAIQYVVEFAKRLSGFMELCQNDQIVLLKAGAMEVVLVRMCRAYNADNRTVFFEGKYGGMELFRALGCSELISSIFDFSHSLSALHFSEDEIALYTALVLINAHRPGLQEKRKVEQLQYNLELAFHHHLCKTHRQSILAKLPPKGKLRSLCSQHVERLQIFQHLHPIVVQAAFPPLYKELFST
Put plainly: Dual-luciferase reporter assay, inhibition of nuclear receptor RORγ at cell level in 293T cells (Gal4-RORγLBD). The class given is cell-based. The following applies: for IC50: inhibitory activity against RORγ at cell level, 293T cells, 24 h incubation with compound; for inhibitory activity compared with reference drug: luciferase, RORγ cell level, reference drug T1317.

Data set [6] deals with T4, glucocorticoid receptor [糖皮质激素受体] (Homo sapiens, UniProt P04150).
T4 sequence (P04150 1-777): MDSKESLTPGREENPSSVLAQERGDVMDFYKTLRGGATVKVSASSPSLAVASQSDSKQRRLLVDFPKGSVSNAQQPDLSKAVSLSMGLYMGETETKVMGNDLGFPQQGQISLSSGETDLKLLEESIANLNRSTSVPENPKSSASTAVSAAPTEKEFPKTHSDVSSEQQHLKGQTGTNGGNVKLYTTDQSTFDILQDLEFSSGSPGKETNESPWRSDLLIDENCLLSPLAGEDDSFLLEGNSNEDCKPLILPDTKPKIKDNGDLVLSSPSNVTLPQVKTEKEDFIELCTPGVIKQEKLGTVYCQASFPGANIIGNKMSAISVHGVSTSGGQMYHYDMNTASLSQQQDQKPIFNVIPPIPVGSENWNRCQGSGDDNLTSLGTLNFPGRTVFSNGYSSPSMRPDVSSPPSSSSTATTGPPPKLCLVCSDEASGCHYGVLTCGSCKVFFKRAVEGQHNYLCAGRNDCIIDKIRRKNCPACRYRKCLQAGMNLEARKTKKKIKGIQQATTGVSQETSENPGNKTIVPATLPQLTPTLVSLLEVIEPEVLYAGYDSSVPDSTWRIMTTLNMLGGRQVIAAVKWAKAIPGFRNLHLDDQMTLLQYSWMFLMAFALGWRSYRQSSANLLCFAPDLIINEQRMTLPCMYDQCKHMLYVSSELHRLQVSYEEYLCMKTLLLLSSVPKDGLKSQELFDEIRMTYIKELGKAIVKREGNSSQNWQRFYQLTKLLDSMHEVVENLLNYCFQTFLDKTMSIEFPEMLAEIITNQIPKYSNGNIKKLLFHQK
The following applies: literature, in words; cited from earlier work.

`CC(=O)Nc1nc(C)c(S(=O)(=O)Nc2ccc(C(O)(C(F)(F)F)C(F)(F)F)cc2)s1` [SR1001]: in data set [1], the “action on RORα” value is on record as “对RORγ和RORα有双重作用的反向激动剂”.

In the case of `O=S(=O)(Nc1ccc(C(O)(C(F)(F)F)C(F)(F)F)cc1)c1cccs1` [SR3335], the “action on RORα” value in data set [1] is “RORα的选择性反向激动剂”.

On to `O=S(=O)(c1ccccc1)N(CC(F)(F)F)c1ccc(C(O)(C(F)(F)F)C(F)(F)F)cc1` [T1317], for which the “action on RORα” value in data set [1] was “可以与RORγ和RORα结合并调控它们的活性”. For the same molecule, the “action on other nuclear receptors” value in data set [2] is given as “还与至少四种其他核受体 (LXRα/β,FXR,PXR)有作用”.

Take `C[C@H]1O[C@@H](O[C@H]2[C@@H](O)C[C@H](O[C@H]3[C@@H](O)C[C@H](O[C@H]4CC[C@@]5(C)[C@H](CC[C@@H]6[C@@H]5C[C@@H](O)[C@]5(C)[C@@H](C7=CC(=O)OC7)CC[C@]65O)C4)O[C@@H]3C)O[C@@H]2C)C[C@H](O)[C@@H]1O` [地高辛]: the “action on RORγ” value in data set [3] was “可以作为RORγ的选择性调控物质”. In addition, in data set [4], the side effects result is “有很强的副作用”. Take `Cc1ccc(S(=O)(=O)Nc2ccc3c(c2)N(S(=O)(=O)c2ccc(F)cc2)CCC3)s1` [实施例5, N-(1-((4-氟苯基)磺酰基)-1,2,3,4-四氢-7-基)-5-甲基噻吩-2-磺酰胺]: the IC50 in data set [5] stood at 740 nM.

Consider `O=S(=O)(Nc1ccc2c(c1)N(S(=O)(=O)c1ccc(F)cc1)CCC2)c1ccc2c(c1)OCCO2` [实施例8, N-(1-((4-氟苯基)磺酰基)-1,2,3,4-四氢喹啉-7-基)-2,3-二氢苯并[b][1,4] 二氧杂环己烯-6-磺酰胺], for which the IC50 in data set [5] came out at 790 nM. Still for that read-out and setting: next, `O=S(=O)(Nc1ccc2c(c1)N(S(=O)(=O)c1ccc(F)cc1)CCO2)c1ccc2c(c1)OCCO2` [实施例12, N-(4-((4-氟苯基)磺酰基)-3,4-二氢-2H-苯并[b][1,4]恶嗪-6-基)-2,3-二氢苯并[b] [1,4]二氧杂环己烯-6-磺酰胺]: 690 nM; `COC(=O)c1ccc(S(=O)(=O)Nc2ccc3c(c2)N(S(=O)(=O)c2ccc(F)cc2)CCC3)cc1` [实施例19, 4-(N-(1-((4-氟苯基)磺酰基)-1,2,3,4-四氢喹啉-7-基)氨磺酰)苯甲酸甲酯]: 880 nM. Turning to `CS(=O)(=O)c1cccc(S(=O)(=O)Nc2ccc3c(c2)N(S(=O)(=O)c2ccc(F)cc2)CCC3)c1` [实施例22, N-(1-((4-氟苯基)磺酰基)-1,2,3,4-四氢喹啉-7-基)-3-(甲基磺酰基)苯磺酰胺], the “inhibitory activity compared with reference drug” value in data set [5] is on record as “比对照药活性相当”.

`COC(=O)c1ccc(CS(=O)(=O)Nc2ccc3c(c2)N(S(=O)(=O)c2ccc(F)cc2)CCC3)cc1` [实施例23, 4-((N-(1-((4-氟苯基)磺酰基)-1,2,3,4-四氢喹啉-7-基)氨磺酰)甲基)苯甲酸甲酯]: in data set [5], the IC50 amounted to 940 nM. As for `COC(=O)c1cccc(CS(=O)(=O)Nc2ccc3c(c2)N(S(=O)(=O)c2ccc(F)cc2)CCC3)c1` [实施例24, 3-((N-(1-((4-氟苯基)磺酰基)-1,2,3,4-四氢喹啉-7-基)氨磺酰)甲基)苯甲酸甲酯], the “inhibitory activity compared with reference drug” value in data set [5] is recorded as “比对照药活性相当”. For the molecule `O=S(=O)(Nc1ccc2c(c1)N(S(=O)(=O)Cc1ccc(F)cc1)CCC2)c1ccc(F)cc1F` [实施例28, 2,4-二氟-N-(1-((4-氟苄基)磺酰基)-1,2,3,4-四氢喹啉-7-基)苯磺酰胺], in data set [5], the IC50 was found to be 740 nM. Same read-out and setting: to `COC(=O)c1cccc(CS(=O)(=O)N2CCCc3ccc(NS(=O)(=O)c4ccc(F)cc4F)cc32)c1` [实施例30, 3-(((7-(2,4-二氟苯基磺酰氨基)-3,4-二氢喹啉-1(2H)-基)磺酰基)甲基)苯甲酸甲酯] belongs 930 nM. Regarding `COC(=O)c1ccccc1S(=O)(=O)N1CCCc2ccc(NS(=O)(=O)c3ccc(F)cc3F)cc21` [实施例31, 2-((7-(2,4-二氟苯基磺酰氨基)-3,4-二氢喹啉-1(2H)-基)磺酰基)苯甲酸甲酯], in data set [5], the IC50 is 160 nM and the “inhibitory activity compared with reference drug” value was “比对照药活性更好”. As for `O=S(=O)(Nc1ccc2c(c1)N(S(=O)(=O)c1cccs1)CCC2)c1ccc2c(c1)OCCO2` [实施例48, N-(1-(噻吩-2-基磺酰基)-1,2,3,4-四氢喹啉-7-基)-2,3-二氢苯并[b][1,4]二氧杂环己烯-6-磺酰胺], the IC50 in data set [5] came out at 580 nM. On to `COC(=O)c1ccccc1S(=O)(=O)N1CCCc2ccc(NS(=O)(=O)c3ccc4c(c3)OCCO4)cc21` [实施例52, 2-((7-(2,3-二氢苯并[b][1,4]二氧杂环己烯-6-磺酰基)-3,4-二氢喹啉-1(2H) -基)磺酰基)苯甲酸甲酯], for which the IC50 in data set [5] is 700 nM.

Regarding `COC(=O)c1ccccc1S(=O)(=O)N1CCCc2ccc(NS(=O)(=O)c3cccc(Cl)c3F)cc21` [实施例53, 2-((7-(3-氯-2-氟苯基磺酰氨基)-3,4-二氢喹啉-1(2H)-基)磺酰基)苯甲酸甲酯], the IC50 in data set [5] was 790 nM. Consider `COC(=O)c1ccccc1S(=O)(=O)N1CCCc2ccc(NS(=O)(=O)c3c(Cl)cccc3Cl)cc21` [实施例54, 2-((7-(2,6-二氯苯基磺酰氨基)-3,4-二氢喹啉-1(2H)-基)磺酰基)苯甲酸甲酯], for which the IC50 in data set [5] turned out to be 230 nM. The same measure, in the same setting: next, `COC(=O)c1ccccc1S(=O)(=O)N1CCCc2ccc(NS(=O)(=O)c3ccc(OC)cc3)cc21` [实施例55, 2-((7-((4-甲氧基苯基)磺酰氨基)-3,4-二氢喹啉-1(2H)-基)磺酰基)苯甲酸甲酯]: 410 nM; `COC(=O)c1ccccc1S(=O)(=O)N1CCCc2ccc(NS(=O)(=O)c3cc(OC)ccc3OC)cc21` [实施例56, 2-((7-((2,5-二甲氧基苯基)磺酰氨基)-3,4-二氢喹啉-1(2H)-基) 磺酰基)苯甲酸甲酯]: 160 nM. With `C[C@H]1[C@H](C)CC[C@]2(C(=O)O)CC[C@]3(C)C(=CC[C@@H]4[C@@]5(C)CC[C@H](O)C(C)(C)[C@@H]5CC[C@]43C)[C@H]12` [熊果酸], the “action on glucocorticoid receptor” value in data set [6] was “对糖皮质激素受体也有作用”. Take “N-(1-(噻吩-2-基磺酰基)-1,2,3,4-四氢喹啉-6-基)-2,3-二氢苯并[b][1,4]二氧杂环己烯 -6-磺酰胺 [实施例66]”: the IC50 in data set [5] is 900 nM.
